The source of these data is ChEMBL document CHEMBL3045344, “Synthesis of d-amino acid peptides and their effect on beta-amyloid aggregation and toxicity in transgenic Caenorhabditis elegans” (Med Chem Res, 2013).

The source made the active and inactive calls. The rule behind the calls is not given here. Square brackets hold non-standard residues; d marks the D form. Peptide text beside a SMILES is read from it.

The target of test [1] is Amyloid-beta precursor protein (Homo sapiens) (UniProt P05067). Kind of test: Induction of amyloid beta (1-42) (unknown origin) aggregation at Abeta42/compound molar ratio of 1:5 after 3 days by turbidity based assay.
Sequence of Amyloid-beta precursor protein (Homo sapiens) (P05067 whole entry): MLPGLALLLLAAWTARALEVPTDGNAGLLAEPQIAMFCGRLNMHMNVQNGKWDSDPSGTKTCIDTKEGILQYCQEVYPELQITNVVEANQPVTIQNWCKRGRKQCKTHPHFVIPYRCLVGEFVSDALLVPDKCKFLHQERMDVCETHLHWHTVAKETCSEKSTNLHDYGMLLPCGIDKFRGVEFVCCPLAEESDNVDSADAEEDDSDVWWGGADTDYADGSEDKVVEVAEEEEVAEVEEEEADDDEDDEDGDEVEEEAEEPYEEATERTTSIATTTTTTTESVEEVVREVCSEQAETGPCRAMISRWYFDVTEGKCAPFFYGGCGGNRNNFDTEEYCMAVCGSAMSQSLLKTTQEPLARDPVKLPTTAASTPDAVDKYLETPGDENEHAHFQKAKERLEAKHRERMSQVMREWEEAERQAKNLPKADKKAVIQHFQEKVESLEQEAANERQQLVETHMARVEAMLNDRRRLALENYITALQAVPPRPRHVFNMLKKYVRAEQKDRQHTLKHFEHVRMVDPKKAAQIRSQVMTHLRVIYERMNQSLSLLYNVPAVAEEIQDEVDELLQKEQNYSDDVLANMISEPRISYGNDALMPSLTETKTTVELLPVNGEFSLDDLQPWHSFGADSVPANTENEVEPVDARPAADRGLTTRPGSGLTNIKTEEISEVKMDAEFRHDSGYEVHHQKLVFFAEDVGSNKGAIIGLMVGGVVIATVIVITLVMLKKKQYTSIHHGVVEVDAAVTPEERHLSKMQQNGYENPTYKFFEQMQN
Test [2] has the same target. Put plainly: Binding affinity to amyloid beta (1-42) (unknown origin) assessed as increase in hydrophobic site exposure at Abeta42/compound molar ratio of 1:5 after 3 days by ANS fluorescence analysis.
Test [3] shares this target. Kind of test: Stabilization of random coil conformation of amyloid beta (1-42) (unknown origin) after 3 days by CD spectroscopy.
The target is the same in test [4]. Put plainly: Induction of amyloid beta (1-42) (unknown origin) aggregation at Abeta42/compound molar ratio of 1:1 after 3 days by turbidity based assay.
Test [5] shares this target. Kind of test: Inhibition of amyloid beta (1-42) (unknown origin) assembly assessed as decrease in fibril formation after 3 days by ThT stain based fluorescence microscopy.
Test [6] shares this target. Kind of test: Inhibition of amyloid beta (1-42) (unknown origin) fibril formation at Abeta42/compound molar ratio of 1:1 after 3 days by thioflavin T fluorescence method.
The target is the same in test [7]. Kind of test: Binding affinity to amyloid beta (1-42) (unknown origin) assessed as increase in hydrophobic site exposure at Abeta42/compound molar ratio of 1:1 after 3 days by ANS fluorescence analysis.
The target is the same in test [8]. Put plainly: Inhibition of amyloid beta (1-42) (unknown origin) fibril formation at Abeta42/compound molar ratio of 1:5 after 3 days by thioflavin T fluorescence method.
Test [9] concerns Caenorhabditis elegans. Kind of test: Increase in survival of transgenic Caenorhabditis elegans CL2006 expressing human amyloid beta42 at 123 ug/ml. Type of test: functional, organism-based.
Test [10] deals with Amyloid-beta precursor protein (Homo sapiens) (UniProt P05067). Kind of test: Induction of amyloid beta (1-42) (unknown origin) oligomer formation after 48 hr by silver staining.
For test [11], the system named is Caenorhabditis elegans. Put plainly: Increase in survival of transgenic Caenorhabditis elegans CL2006 expressing human amyloid beta42 at 124 ug/ml. It is filed as functional, organism-based.
Test [12] has as its target Amyloid-beta precursor protein (Homo sapiens) (UniProt P05067). Kind of test: Inhibition of amyloid beta (1-42) (unknown origin) oligomer formation after 48 hr by silver staining.
Test [13] shares this target. Put plainly: Inhibition of amyloid beta (1-42) (unknown origin) aggregation at Abeta42/compound molar ratio of 1:5 after 3 days by turbidity based assay.
The target is the same in test [14]. Kind of test: Inhibition of amyloid beta (1-42) (unknown origin) aggregation at Abeta42/compound molar ratio of 1:1 after 3 days by turbidity based assay.
The target is the same in test [15]. Kind of test: Induction of amyloid beta (1-42) (unknown origin) assembly assessed as mixed fibril and spherical aggregate formation after 3 days by ThT stain based fluorescence microscopy.

Consider `CC(C)C[C@@H](NC(=O)[C@@H](CCCCN)NC(=O)[C@H](N)CCCCN)C(=O)N[C@@H](C(=O)N[C@H](Cc1ccccc1)C(=O)N[C@H](Cc1ccccc1)C(=O)N[C@H](C)C(=O)N[C@H](CCCNC(=N)N)C(=O)N[C@H](CCCNC(=N)N)C(=O)N[C@H](CCCNC(=N)N)C(=O)N[C@H](CCCNC(=N)N)C(=O)N[C@H](C)C(=O)O)C(C)C`, for which the outcome in test [1], in [2], in test [3], in test [4], in test [7] and in test [10] was Active. In addition, the inhibition result in test [5], in [6] and in test [8] was “Active” throughout. In the test on Caenorhabditis elegans [9], the result was inactive.
`CC(C)C[C@@H](NC(=O)[C@@H](CCCCN)NC(=O)[C@H](N)CCCCN)C(=O)N[C@@H](C(=O)N[C@H](Cc1ccccc1)C(=O)N[C@H](Cc1ccccc1)C(=O)N[C@H](C)C(=O)O)C(C)C` (H-[dK][dK][dL][dV][dF][dF][dA]-OH): the result (with Caenorhabditis elegans [11]; in test [1]; in [2]; in [3]; in test [4]; in test [7]) was Active. In addition, the inhibition entry in test [5], in test [6], in test [8] and in test [12] was “Active” each time.
With `CC(C)C[C@@H](NC(=O)[C@@H](CCCCN)NC(=O)CNC(=O)[C@H]1CCCN1)C(=O)N[C@@H](C(=O)N[C@H](Cc1ccc(O)cc1)C(=O)N[C@H](C)C(=O)O)C(C)C`, the outcome (in the test with Caenorhabditis elegans [11]; in test [2]; in test [3]; in [15]; in test [7]) was Active. Besides, the inhibition entry in test [13], in test [14] and in test [12] was “Active” each time. The inhibition entry in test [6] and in [8] was “inactive” throughout.
